According to patent US12583858B2 (Genentech, Inc., priority 2015, dated 2026):

Molecular target: T1, TDO2 (Homo sapiens, UniProt P48775)
T1 construct: decreased levels of NFK in SW48 cells (high TDO expressing cells)
Assay: TDO2 cell assay (NFK GreenScreen, SW48 cells)
Type: cell-based
Conditions: SW48 cells (high TDO expressing), 200 uM tryptophan, 24 hours; Table 3; read-out: TDO2 Cell Fluor EC50

T1 sequence (P48775 whole entry): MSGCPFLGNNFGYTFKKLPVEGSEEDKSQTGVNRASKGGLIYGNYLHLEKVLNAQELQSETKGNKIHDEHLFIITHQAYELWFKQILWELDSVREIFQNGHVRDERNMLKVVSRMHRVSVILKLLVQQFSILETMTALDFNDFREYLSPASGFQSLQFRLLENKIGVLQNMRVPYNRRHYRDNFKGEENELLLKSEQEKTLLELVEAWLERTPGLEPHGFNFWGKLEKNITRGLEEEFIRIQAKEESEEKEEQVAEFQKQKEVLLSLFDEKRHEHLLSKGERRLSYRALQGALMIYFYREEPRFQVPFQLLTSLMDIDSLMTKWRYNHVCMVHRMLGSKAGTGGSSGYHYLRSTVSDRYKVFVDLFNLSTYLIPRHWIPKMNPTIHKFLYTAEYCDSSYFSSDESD

EC50 [µM] | Structure (SMILES)
16 | NC(=O)C1([C@@H](O)[C@H]2c3ccccc3-c3cncn32)CC1 [Example 165a, 1-((R)-hydroxy((R)-5H-imidazo[5,1-a]isoindol-5-yl)methyl)cyclopropane-1-carboxamide]
0.33 | O[C@@H]1CN(CC(F)(F)F)CC[C@H]1[C@H]1c2ccccc2-c2cncn21 [Example 82b, (3S,4S)-4-((S)-5H-imidazo[5,1-a]isoindol-5-yl)-1-(2,2,2-trifluoroethyl)piperidin-3-ol]
20 | N#CCN1CCC(O)C(C2c3ccccc3-c3cncn32)C1 (single isomer, unassigned) [Example 58c]
0.085 | CC1(C)CCC(C2c3ccccc3-c3cncn32)C1O (single isomer, unassigned) [Example 23b]
5.2 | CS(=O)(=O)N1CCC(C2c3ccccc3-c3cncn32)C(O)C1 (single isomer, unassigned) [Example 79b]
0.22 | CS(=O)(=O)N1CC2(CC(C3c4ccccc4-c4cncn43)C2O)C1 (stereo not shown) [Example 183, 6-(5H-imidazo[5,1-a]isoindol-5-yl)-2-(methylsulfonyl)-2-azaspiro[3.3]heptan-5-ol]
8.7 | CC1(C)CCCC(C2c3ccccc3-c3cncn32)C1O (single isomer, unassigned) [Example 24b]
> 25 | OC1c2cc(C(F)F)nn2CCC1C1c2ccccc2-c2cncn21 (single isomer, unassigned) [Example 173a]
17.7 | Cc1ccc2c(c1)-c1cncn1C2C1COCC1O (single isomer, unassigned) [Example 171d]
0.067 | CC1(C)OC(C)(C)C(C2c3ccccc3-c3cncn32)C1O (single isomer, unassigned) [Example 84b]
> 25 | OC1C(C2c3ccccc3-c3cncn32)CC12CCOCC2 (single isomer, unassigned) [Example 57d]
> 25 | CC1(C)OC(C)(C)C(C2c3ccccc3-c3cncn32)C1O (single isomer, unassigned) [Example 84f]
4.4 | OC1c2ccccc2CC1C1c2ccccc2-c2cncn21 (single isomer, unassigned) [Example 19f]
> 25 | CC(O)(c1ncc[nH]1)C1c2ccccc2-c2cncn21 (single isomer, unassigned) [Example 143b]
11 | OC1c2cnccc2CC1C1c2ccccc2-c2cncn21 (single isomer, unassigned) [Example 71e]
0.23 | O[C@H]1c2ccncc2CC[C@@H]1[C@H]1c2ccccc2-c2cncn21 (single isomer, unassigned) [Example 08e]
> 25 | OC1CCOCC1C1c2c(Cl)cccc2-c2cncn21 (single isomer, unassigned) [Example 69d]
> 25 | CC(C)(C(N)=O)C(O)C1c2ccccc2-c2cncn21 (single isomer, unassigned) [Example 155b]
0.29 | Cc1ncc2c(n1)CCC(C1c3ccccc3-c3cncn31)C2O (single isomer, unassigned) [Example 124b]
> 25 | Cc1nc2c(o1)CCC(C1c3ccccc3-c3cncn31)C2O (single isomer, unassigned) [Example 178b]
22 | O[C@@H]1c2[nH]ncc2CC[C@H]1[C@@H]1c2ccccc2-c2cncn21 (single isomer, unassigned) [Example 157b]
0.76 | OC1c2[nH]ncc2CCC1C1c2ccccc2-c2cncn21 (single isomer, unassigned) [Example 157h]
2 | OC1c2cncnc2CCC1C1c2ccccc2-c2cncn21 (single isomer, unassigned) [Example 94e]

EC50 [µM] | Structure (SMILES)
0.052 | OC1CC2(CC2)C1C1c2ccccc2-c2cncn21 (single isomer, unassigned) [Example 72e]
> 25 | OC1c2cnncc2CCC1C1c2ccccc2-c2cncn21 (single isomer, unassigned) [Example 112a]
> 25 | NS(=O)(=O)N1CCC2(CC1)CC(C1c3ccccc3-c3cncn31)C2O (single isomer, unassigned) [Example 181c]
0.19 | NC(=O)c1nc2c(s1)CCC(C1c3ccccc3-c3cncn31)C2O (single isomer, unassigned) [Example 149a]
24 | Nc1ccc2c(n1)CCC(C1c3ccccc3-c3cncn31)C2O (single isomer, unassigned) [Example 121f]
8.6 | NS(=O)(=O)c1ccc2c(c1)C(O)C(C1c3ccccc3-c3cncn31)CC2 (single isomer, unassigned) [Example 105b]
> 25 | O[C@@H]1COCC[C@H]1[C@@H]1c2c(F)cccc2-c2cncn21 (single isomer, unassigned) [Example 120d]
> 25 | CC(=O)N1CC[C@@H](O)[C@H]([C@@H]2c3ccccc3-c3cncn32)C1 (single isomer, unassigned) [Example 12d]
0.57 | CC1(O)CCOCC1C1c2ccccc2-c2cncn21 (single isomer, unassigned) [Example 61a]
0.64 | OC1c2cccn2CCC1C1c2ccccc2-c2cncn21 (single isomer, unassigned) [Example 136e]
0.51 | O[C@@H]1c2ccncc2CC[C@@H]1[C@H]1c2ccccc2-c2cncn21 (single isomer, unassigned) [Example 08d]
0.21 | OC1C(C2c3ccccc3-c3cncn32)CC12CCOCC2 (single isomer, unassigned) [Example 57g]
> 25 | OC1COCCC1C1c2ccc(F)cc2-c2cncn21 (single isomer, unassigned) [Example 33d]
> 25 | Nc1cc2n(n1)CCC(C1c3ccccc3-c3cncn31)C2O [Example 161f, (4R,5S)-2-amino-5-((R)-5H-imidazo[5,1-a]isoindol-5-yl)-4,5,6,7-tetrahydropyrazolo[1,5-a]pyridin-4-ol]
0.35 | O[C@@H]1c2ccccc2CC[C@H]1[C@@H]1c2ccccc2-c2cncn21 (single isomer, unassigned) [Example 102g]
> 25 | OC1c2ccnn2CCCC1C1c2ccccc2-c2cncn21 (single isomer, unassigned) [Example 133f]
> 25 | O[C@@H]1COCC[C@@H]1[C@@H]1c2ccccc2-c2cncn21 [Example 06e, (3S,4R)-4-((R)-5H-imidazo[5,1-a]isoindol-5-yl)tetrahydro-2H-pyran-3-ol]
0.1 | OC1CCCCCC1C1c2ccccc2-c2cncn21 (single isomer, unassigned) [Example 115d, 2-(5H-imidazo[5,1-a]isoindol-5-yl)cycloheptan-1-ol]
8.1 | O[C@H]1[C@H]([C@@H]2c3ccccc3-c3cncn32)CCCC1(F)F (single isomer, unassigned) [Example 106c]
> 25 | CC(C)S(=O)(=O)N1CCC(C2c3ccccc3-c3cncn32)C(O)C1 (single isomer, unassigned) [Example 89b]
11 | NS(=O)(=O)N1CCC2(CC1)CC(C1c3ccccc3-c3cncn31)C2O (single isomer, unassigned) [Example 181h]
> 25 | OC1c2cnccc2CC1C1c2ccccc2-c2cncn21 (single isomer, unassigned) [Example 71aa]
0.14 | OC1CCCOCC1C1c2ccccc2-c2cncn21 (single isomer, unassigned) [Example 86d]
